According to patent US20220178931A1, “Sensor” (The University of Bristol, priority 2019, published 2022):

Assays:
[1] = DPH displacement from alpha-helical barrel, competitive inhibition assay, analyte beta-carotene; settings: barrel incubated with DPH or TMA-DPH; analyte 0.05-300 μM; fluorescence; dash = no competitive binding observed; read-out: B-carotene K1
Description: (§1) The four analytes below were selected based on having hydrophobic properties and being able to adopt an elongate configuration, as these were postulated to have the best chance of displacing a reporter dye.
(§2) DPH was used as the reporter dye, and displacement of DPH was recorded using a standard competitive inhibition assay. In other words, the ability of an analyte to inhibit DPH binding was recorded by the inhibition constant Ki. Alpha-helical barrels were incubated with DPH, or its cationic variant 1-(4-trimethylammoniumphenyl)-6-phenyl-1,3,5-hexatriene p-toluenesulfonate (TMA-DPH). Analyte was added (0.05-300 μM) and the fluorescence signal measured.

[2] = DPH reporter dye binding to alpha-helical barrel lumen (fluorescence titration); settings: DPH 1 μM incubated with alpha-helical barrel 0.5-500 μM for up to 2 hours; fluorescent signal
Description: (§3) The dyes 1,6-diphenyl-1,3,5-hexatriene (DPH) and 6-propionyl-2-dimethylaminonaphthalene (prodan) were assayed against a number of alpha-helical barrels to determine their dissociation constants, KD. DPH or prodan (1 μM) was incubated with varying concentrations of alpha-helical barrel (0.5-500 μM) for up to 2 hours, and the fluorescent signal measured at the corresponding emission wavelength.

[3] = Prodan reporter dye binding to alpha-helical barrel lumen (fluorescence titration); settings: for Kd: prodan 1 μM incubated with alpha-helical barrel 0.5-500 μM for up to 2 hours, fluorescent signal, dash = did not bind; for prodan binding to alpha-helical barrel (in words): summary of KD table
Description: as §3

[4] = DPH displacement from alpha-helical barrel, competitive inhibition assay, analyte farnesol; settings: barrel incubated with DPH or TMA-DPH; analyte 0.05-300 μM; fluorescence; dash = no competitive binding observed; read-out: Famesol K1
Description: as §1, §2

[5] = DPH displacement from alpha-helical barrel, competitive inhibition assay, analyte palmitic acid; format: binding; settings: barrel incubated with DPH or TMA-DPH; analyte 0.05-300 μM; fluorescence; read-out: Palmitic acid K1
Description: as §1, §2

[6] = DPH displacement from alpha-helical barrel, competitive inhibition assay, analyte retinol; format: binding; settings: barrel incubated with DPH or TMA-DPH; analyte 0.05-300 μM; fluorescence; read-out: Retinol K1
Description: as §1, §2

| Ki [1] [µM] | Kd [2] [µM] | Kd [3] [µM] | prodan binding to alpha-helical barrel (in words) [3] | Ki [4] [µM] | Ki [5] [µM] | Ki [6] [µM] | Sequence |
| --- | --- | --- | --- | --- | --- | --- | --- |
| > 300 | 7.1 ± 1.3 | > 500 | did not bind | 23.9 ± 2.4 | 1 ± 0.3 | 6.4 ± 3.2 | GELKAIAQELKAIAKELKAIAWELKAIAQG [CC-Hex, 6 helices in barrel] |
| > 300 | 22.4 ± 4.3 | > 500 | did not bind | > 300 | 1.1 ± 0.5 | 14.8 ± 4.1 | GKIEQILQKIEKILQKIEWILQKIEQILQG [CC-Pent, alpha helix self-assembling into alpha-helical barrel] |
| > 300 | 9.5 ± 1.1 | 39.2 ± 6.8 | – | 8.6 ± 1.3 | 1.1 ± 0.3 | 4.6 ± 1.9 | GEIAKSLKEIAKSLKEIAWSLKEIAKSLKG [CC-Hex2, 6 helices in barrel] |
| 12.1 ± 5.4 | 8.9 ± 2.2 | 40.5 ± 4 | – | 0.6 ± 0.2 | 0.9 ± 0.3 | 4 ± 0.7 | GEIAQALREIAKALREIAWALREIAQALRG [CC-Hept, 7 helices in barrel] |
